Columns and labels:
Assay type in all cases: in vivo
[1] = system: barnyardgrass (Echinochloa crus-galli); assay: Test A postemergence, visual injury rating; settings: 0 is no effect, 100 is complete control; for Barnyardgrass plant response rating: 31 g ai/ha, 0 to 100 scale, approximately 10 days
Procedure, shortened: (§1)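 Greenhouse pot test, loam/sand soil. Formulation: non-phytotoxic solvent mix plus surfactant. Pre: directed spray onto soil after sowing. Post: plants at 1–2 leaf, 2–10 cm. Rated visually vs untreated controls at ~10 d, 0 (no effect) to 100 (complete control).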

[2] = system: wheat (Triticum aestivum); assay: Test A postemergence, visual injury rating; settings: 0 is no effect, 100 is complete control; for Wheat plant response rating: 31 g ai/ha, 0 to 100 scale, approximately 10 days
Procedure, shortened: as §1

[3] = system: Italian ryegrass (Lolium multiflorum); assay: Test A postemergence, visual injury rating; settings: 0 is no effect, 100 is complete control; for Ryegrass, Italian plant response rating: 31 g ai/ha, 0 to 100 scale, approximately 10 days
Procedure, shortened: as §1

[4] = system: blackgrass (Alopecurus myosuroides); assay: Test A postemergence, visual injury rating; settings: 0 is no effect, 100 is complete control; for Blackgrass plant response rating: 31 g ai/ha, 0 to 100 scale, approximately 10 days
Procedure, shortened: as §1

[5] = system: galium (catchweed bedstraw, Galium aparine); assay: Test A postemergence, visual injury rating; settings: 0 is no effect, 100 is complete control; for Galium plant response rating: 31 g ai/ha, 0 to 100 scale, approximately 10 days
Procedure, shortened: as §1

[6] = system: giant foxtail (Setaria faberii); assay: Test A postemergence, visual injury rating; settings: 0 is no effect, 100 is complete control; for Foxtail, Giant plant response rating: 31 g ai/ha, 0 to 100 scale, approximately 10 days
Procedure, shortened: as §1

[7] = system: pigweed (Amaranthus retroflexus); assay: Test A postemergence, visual injury rating; settings: 0 is no effect, 100 is complete control; for Pigweed plant response rating: 31 g ai/ha, 0 to 100 scale, approximately 10 days
Procedure, shortened: as §1

kochia (Kochia scoparia) [8] = assay: Test A postemergence, visual injury rating; settings: 0 is no effect, 100 is complete control; for Kochia plant response rating: 31 g ai/ha, 0 to 100 scale, approximately 10 days
Procedure, shortened: as §1

corn (Zea mays) = assay: Test A postemergence, visual injury rating; settings: 0 is no effect, 100 is complete control; for Corn plant response rating: 31 g ai/ha, 0 to 100 scale, approximately 10 days
Procedure, shortened: as §1

[9] = system: ragweed (common ragweed, Ambrosia elatior); assay: Test A postemergence, visual injury rating; settings: 0 is no effect, 100 is complete control; for Ragweed plant response rating: 31 g ai/ha, 0 to 100 scale, approximately 10 days
Procedure, shortened: as §1

[10] = system: barnyardgrass (Echinochloa crus-galli); assay: Test A preemergence, visual injury rating; settings: for Barnyardgrass plant response rating: 0 to 100 scale (0 no effect, 100 complete control); for Plant response rating, Barnyardgrass: 31 g ai/ha, 0 to 100 scale, 0 no effect, 100 complete control
Procedure, shortened: as §1

[11] = system: Italian ryegrass (Lolium multiflorum); assay: Test A preemergence, visual injury rating; settings: for Ryegrass, Italian plant response rating: 0 to 100 scale (0 no effect, 100 complete control); for Plant response rating, Ryegrass, Italian: 31 g ai/ha, 0 to 100 scale, 0 no effect, 100 complete control
Procedure, shortened: as §1

[12] = system: giant foxtail (Setaria faberii); assay: Test A preemergence, visual injury rating; settings: for Foxtail, Giant plant response rating: 0 to 100 scale (0 no effect, 100 complete control); for Plant response rating, Foxtail, Giant: 31 g ai/ha, 0 to 100 scale, 0 no effect, 100 complete control
Procedure, shortened: as §1

[13] = system: pigweed (Amaranthus retroflexus); assay: Test A preemergence, visual injury rating; settings: for Pigweed plant response rating: 0 to 100 scale (0 no effect, 100 complete control); for Plant response rating, Pigweed: 31 g ai/ha, 0 to 100 scale, 0 no effect, 100 complete control
Procedure, shortened: as §1

kochia (Kochia scoparia) [14] = assay: Test A preemergence, visual injury rating; settings: for Kochia plant response rating: 0 to 100 scale (0 no effect, 100 complete control); for Plant response rating, Kochia: 31 g ai/ha, 0 to 100 scale, 0 no effect, 100 complete control
Procedure, shortened: as §1

[15] = system: ragweed (common ragweed, Ambrosia elatior); assay: Test A preemergence, visual injury rating; settings: for Ragweed plant response rating: 0 to 100 scale (0 no effect, 100 complete control); for Plant response rating, Ragweed: 31 g ai/ha, 0 to 100 scale, 0 no effect, 100 complete control
Procedure, shortened: as §1

[16] = system: sedge, umbrella (small-flower umbrella sedge, Cyperus difformis); assay: Test B flooded paddy test, plant response rating; settings: 250 g ai/ha; Flood; scale of 0 to 100 where 0 is no effect and 100 is complete control; 13 to 15 days
Procedure, shortened: (§2)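 Ratings were visual and made relative to untreated controls after 13 to 15 greenhouse days.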

[17] = system: ducksalad (Heteranthera limosa); assay: Test B flooded paddy test, plant response rating; settings: 250 g ai/ha; Flood; scale of 0 to 100 where 0 is no effect and 100 is complete control; 13 to 15 days
Procedure, shortened: as §2

[18] = system: barnyardgrass (Echinochloa crus-galli); assay: Test B flooded paddy test, plant response rating; settings: 250 g ai/ha; Flood; scale of 0 to 100 where 0 is no effect and 100 is complete control; 13 to 15 days
Procedure, shortened: as §2

rice (Oryza sativa) = assay: Test B flooded paddy test, plant response rating; settings: 250 g ai/ha; Flood; scale of 0 to 100 where 0 is no effect and 100 is complete control; 13 to 15 days
Procedure, shortened: as §2

| Structure (SMILES) | Barnyardgrass plant response rating (0 to 100 scale) ([1]; 125 g ai/ha) | Wheat plant response rating (0 to 100 scale) ([2]; 125 g ai/ha) | Ryegrass, Italian plant response rating (0 to 100 scale) ([3]; 125 g ai/ha) | Blackgrass plant response rating (0 to 100 scale) ([4]; 125 g ai/ha) | Galium plant response rating (0 to 100 scale) ([5]; 125 g ai/ha) | Foxtail, Giant plant response rating (0 to 100 scale) ([6]; 125 g ai/ha) | Pigweed plant response rating (0 to 100 scale) ([7]; 125 g ai/ha) | Kochia plant response rating (0 to 100 scale) (kochia (Kochia scoparia) [8]; 125 g ai/ha) | Corn plant response rating (0 to 100 scale) (corn (Zea mays); 125 g ai/ha) | Ragweed plant response rating (0 to 100 scale) ([9]; 125 g ai/ha) | Barnyardgrass plant response rating ([10]; 125 g ai/ha) | Ryegrass, Italian plant response rating ([11]; 125 g ai/ha) | Foxtail, Giant plant response rating ([12]; 125 g ai/ha) | Pigweed plant response rating ([13]; 125 g ai/ha) | Kochia plant response rating (kochia (Kochia scoparia) [14]; 125 g ai/ha) | Ragweed plant response rating ([15]; 125 g ai/ha) | Plant response rating, Sedge, Umbrella [16] | Plant response rating, Ducksalad [17] | Plant response rating, Barnyardgrass [18] | Plant response rating, Rice (rice (Oryza sativa)) | other results |
| --- | --- | --- | --- | --- | --- | --- | --- | --- | --- | --- | --- | --- | --- | --- | --- | --- | --- | --- | --- | --- | --- |
| CN(OCC(F)(F)F)C(=O)c1c(Br)cccc1Oc1ncc(Cl)cn1 [Compound 25] | 0 | 0 | 0 | 0 | 20 | 0 | 30 | 10 | 0 | 10 | 0 | 0 | 10 | 40 | 0 | 0 | 0 | 0 | 0 | 0 | Barnyardgrass plant response rating (0 to 100 scale) ([1]; 500 g ai/ha): 10; Wheat plant response rating (0 to 100 scale) ([2]; 500 g ai/ha): 10; Ryegrass, Italian plant response rating (0 to 100 scale) ([3]; 500 g ai/ha): 0; Blackgrass plant response rating (0 to 100 scale) ([4]; 500 g ai/ha): 30; Galium plant response rating (0 to 100 scale) ([5]; 500 g ai/ha): 50; Foxtail, Giant plant response rating (0 to 100 scale) ([6]; 500 g ai/ha): 10; Pigweed plant response rating (0 to 100 scale) ([7]; 500 g ai/ha): 60; Kochia plant response rating (0 to 100 scale) (kochia (Kochia scoparia) [8]; 500 g ai/ha): 50; Corn plant response rating (0 to 100 scale) (corn (Zea mays); 500 g ai/ha): 20; Ragweed plant response rating (0 to 100 scale) ([9]; 500 g ai/ha): 20; Barnyardgrass plant response rating ([10]; 500 g ai/ha): 30; Ryegrass, Italian plant response rating ([11]; 500 g ai/ha): 0; Foxtail, Giant plant response rating ([12]; 500 g ai/ha): 60; Pigweed plant response rating ([13]; 500 g ai/ha): 80; Kochia plant response rating (kochia (Kochia scoparia) [14]; 500 g ai/ha): 50; Ragweed plant response rating ([15]; 500 g ai/ha): 0 |
| O=C(OC(CCl)CCl)c1c(Br)cccc1Oc1ncc(Cl)cn1 [Compound 36] | 0 | 0 | 0 | 0 | 0 | 0 | 60 | 0 | 0 | 0 | 0 | 0 | 0 | 0 | 0 | 0 | 0 | 0 | 0 | 0 | Barnyardgrass plant response rating [1]: 0; Wheat plant response rating [2]: 0; Ryegrass, Italian plant response rating [3]: 0; Blackgrass plant response rating [4]: 0; Galium plant response rating [5]: 0; Foxtail, Giant plant response rating [6]: 0; Pigweed plant response rating [7]: 0; Kochia plant response rating (kochia (Kochia scoparia) [8]): 0; Corn plant response rating (corn (Zea mays)): 0; Ragweed plant response rating [9]: 0; Plant response rating, Barnyardgrass [10]: 0; Plant response rating, Ryegrass, Italian [11]: 0; Plant response rating, Foxtail, Giant [12]: 0; Plant response rating, Pigweed [13]: 0; Plant response rating, Kochia (kochia (Kochia scoparia) [14]): 0; Plant response rating, Ragweed [15]: 0 |
| C=CC(C)COC(=O)c1c(Br)cccc1Oc1ncc(Cl)cn1 (stereo not drawn) [Compound 37] | 30 | 0 | 0 | 30 | 40 | 40 | 80 | 40 | 10 | 0 | 30 | 0 | 70 | 0 | 0 | 0 | 0 | 0 | 0 | 0 | Barnyardgrass plant response rating [1]: 0; Wheat plant response rating [2]: 0; Ryegrass, Italian plant response rating [3]: 0; Blackgrass plant response rating [4]: 0; Galium plant response rating [5]: 10; Foxtail, Giant plant response rating [6]: 0; Pigweed plant response rating [7]: 20; Kochia plant response rating (kochia (Kochia scoparia) [8]): 0; Corn plant response rating (corn (Zea mays)): 0; Ragweed plant response rating [9]: 0; Plant response rating, Barnyardgrass [10]: 0; Plant response rating, Ryegrass, Italian [11]: 0; Plant response rating, Foxtail, Giant [12]: 20; Plant response rating, Pigweed [13]: 0; Plant response rating, Kochia (kochia (Kochia scoparia) [14]): 0; Plant response rating, Ragweed [15]: 0 |
| C#CCCOC(=O)c1c(Br)cccc1Oc1ncc(Cl)cn1 [Compound 38] | 60 | 0 | 0 | 0 | 80 | 90 | 100 | 60 | 10 | 10 | 90 | 0 | 100 | 100 | 40 | 0 | 30 | 40 | 0 | 0 | Barnyardgrass plant response rating [1]: 10; Wheat plant response rating [2]: 0; Ryegrass, Italian plant response rating [3]: 0; Blackgrass plant response rating [4]: 0; Galium plant response rating [5]: 50; Foxtail, Giant plant response rating [6]: 40; Pigweed plant response rating [7]: 80; Kochia plant response rating (kochia (Kochia scoparia) [8]): 30; Corn plant response rating (corn (Zea mays)): 0; Ragweed plant response rating [9]: 0; Plant response rating, Barnyardgrass [10]: 20; Plant response rating, Ryegrass, Italian [11]: 0; Plant response rating, Foxtail, Giant [12]: 30; Plant response rating, Pigweed [13]: 60; Plant response rating, Kochia (kochia (Kochia scoparia) [14]): 0; Plant response rating, Ragweed [15]: 0 |
